Publication PMC13108699, “Mass balance and metabolite profiling of ^14C-Zalunfiban in humans following single-dose subcutaneous administration” (Xenobiotica; the fate of foreign compounds in biological …, 2025)
Where “and” joins values, the source holds several entries; their conditions need not be identical. Identical values can stand only once.

What was measured:
[1] = Whole blood total radioactivity (AMS) PK after SC ^14C-zalunfiban; format: in vivo, human
Description: The planned participant enrolment size was 8, with 2 additional alternate participants available on the morning of dosing. Following a 28-day screening period, all eligible participants were admitted to the research unit the evening before dosing. After fasting overnight, participants completed a standard breakfast prior to dosing on study day 1. After dosing, subjects fasted for 4 h. Fluids were permitted ad libitum starting 1-hour after dosing. […] The clinical study was conducted at the Pharmaron Clinical Pharmacology Centre (Baltimore, MD) and the study protocol, consent forms and regulatory documents were reviewed and approved by the […] Institutional Review Board (Columbia, MD). All participants received the same fixed mass dose of SC 9.5 mg ^14C-zalunfiban (5 μCi), in 0.5 mL of formulation solution. This zalunfiban dose was chosen to both ensure participant safety and to make certain the study results were clinically relevant. For the latter, by strict inclusion of participants with a body weight within the range of 73-99 kg, the zalunfiban doses were no higher than the highest administered in the currently ongoing Phase 3 study, which includes three groups of 0.110 mg/kg zalunfiban, 0.130 mg/kg zalunfiban, and placebo ([NIH 2025]). The ^14C radiolabel dose of 5 μCi presented minimal radiation risk to healthy subjects while providing a high likelihood of meeting the study objectives. […] At the laboratory, extraction of ^14C-zalunfiban from whole blood was achieved by repeated microcentrifugation, vortex mixing, and harvesting to collect analytes (see Metabolite profiling and excretion for more details). […] Whole blood samples were analysed using accelerator mass spectrometry (AMS). Urine sample analysis was performed using liquid scintillation counting analysis. Each sample was counted for at least 10 min or until the 2%2σ terminator was reached. Homogenised faeces samples were combusted in a Perkin Elmer, Model 307 sample oxidiser (Perkin Elmer, Waltham MA). […] For urine and faeces samples, total radioactivity analysis was initially performed using two liquid scintillation counters (LSC), a TriCarb 3180 TR/SL and a TriCarb 5110 TR (Perkin Elmer, Waltham MA). When the measured total radioactivity concentration was above the LLOQ, LSC data were reported. For LSC, the LLOQ was defined as twice the background count rate. If the radioactivity concentration was below the limit of quantification (BLOQ), samples were analysed by Accelerator Mass Spectrometry (AMS). For AMS analysis, the LLOQ for total radioactivity depends on multiple factors, including the carbon content of the sample, and it is provided as the mean of all participant values. The mean (SD) total radioactivity LLOQ for zalunfiban in whole blood was 0.2421 (0.0571) ngEq/mL, for faeces 0.0663 (0.0135) ngEq/gm, and urine 0.0088 (0.0029) ngEq/g. Zalunfiban and whole blood radioactivity concentrations were used to calculate PK parameters using standard non-compartmental analysis (NCA) methods using Phoenix WinNonlin software (Phoenix, Princeton, NJ). All statistical programming and tables, figures and listings were carried out using SAS 9.4 (SAS Institute, Inc., Cary, NC).

[2] = Safety assessments (adverse events, laboratory, vital signs, ECG); format: in vivo, human; settings: for Tolerability: single SC 9.5 mg, 8 healthy males
Description: The study was reviewed, approved, and monitored by both an independent Institutional Review Board and a Data Safety Monitoring Board, and the protocol was performed under an Investigational New Drug Application. The safety of single-dose SC zalunfiban was evaluated by monitoring adverse events, clinical laboratory data, vital signs, 12-lead electrocardiogram, and physical examination. Vital signs (blood pressure, heart rate, body temperature, respiratory rate) were measured at screening, admission, pre-dose, post-dose at 1, 4, 8, hours, and in the morning on study days 2–11. Safety laboratory tests included serum chemistry, haematology, coagulation, and urinalysis, and were performed at screening, admission, and on study days 1, 4, and 11. On day 1, additional platelet counts were performed post-dose at 2, 6, and 12 h. […] Participants were continuously monitored for adverse events (AEs) and new use of medication(s).
During the study, AEs were collected from the time of informed consent to the last time the participant was seen. Any AE that occurred after the start of study drug administration was considered a treatment-emergent AE (TEAE). The investigator or designee assessed the severity of all AEs using the toxicity grading scale in National Cancer Institute Common Terminology Criteria for Adverse Events v5.0. These scales assign a grade of 1 through 5 to indicate the severity of AEs.

For `NCC(=O)Nc1cncc(-c2nn3c(=O)cc(N4CCNCC4)nc3s2)c1` [Zalunfiban, 2-amino-N-{5-[5-oxo-7-(piperazin-1-yl)-5H-[1,3,4]thia-diazolo[3,2-a]pyrimidin-2-yl]pyridin-3-yl}acetamide], the “Time of first detection of whole blood radioactivity” value ([1]; all participants) was 5 min, the “Time to which whole blood total radioactivity remained quantifiable” value ([1]; all subjects except one (216 h)) was “up to 240 h” and the “Mean whole blood zalunfiban/total radioactivity expressed as a percentage, AUC0–4” value ([1]; first 4 h after dose) was 35.6% and 35%. The “t1/2, whole blood total radioactivity” value ([1]; mean, overall (0.5 h to 240 h), n=8) was 98.3 h, the “Mean whole blood zalunfiban/total radioactivity expressed as a percentage, AUC0-inf” value ([1]; to be interpreted with caution (different assay sensitivity)) was 15.1% and the TEAE headache ([2]; 1 grade 1 and one grade 2, of 8 dosed) was 2 participants. For the same compound, the “Changes in clinical laboratory tests, vital signs, or ECGs” value ([2]; 8 dosed) was “no observed clinically significant changes”, the “Serious TEAEs” value ([2]; 8 dosed) was “no serious TEAEs” and the “TEAEs leading to study discontinuation” value ([2]; 8 dosed) was “no TEAEs leading to study discontinuation”. For the same compound, the TEAE confusion ([2]; grade 1, of 8 dosed) was 1 participant, the “TEAE injection site bruising” value ([2]; grade 1, of 8 dosed) was 1 participant and the “TEAE injection site pain” value ([2]; grade 1, of 8 dosed) was 1 participant. The “Participants with Grade 1 AEs” value ([2]; of 8 dosed) was 4 participants, the “Participants with a Grade 2 AE” value ([2]; of 8 dosed) was 1 participant and the Tolerability [2] was “well-tolerated”. The Tolerability ([2]; listed as 14C-zalunfiban) was “safe and well-tolerated”.
